SMILES strings stand for the structures. Like-named read-outs stand apart in the source and are kept apart here.

The source of these data is patent publication US20060276464A1, “Diarylsulfone sulfonamides and use thereof” (Wyeth, priority 2005, published 2006).

The target of this data set is T1, SFRP-1 (Homo sapiens, UniProt Q8N474).
T1 sequence (Q8N474 32-314): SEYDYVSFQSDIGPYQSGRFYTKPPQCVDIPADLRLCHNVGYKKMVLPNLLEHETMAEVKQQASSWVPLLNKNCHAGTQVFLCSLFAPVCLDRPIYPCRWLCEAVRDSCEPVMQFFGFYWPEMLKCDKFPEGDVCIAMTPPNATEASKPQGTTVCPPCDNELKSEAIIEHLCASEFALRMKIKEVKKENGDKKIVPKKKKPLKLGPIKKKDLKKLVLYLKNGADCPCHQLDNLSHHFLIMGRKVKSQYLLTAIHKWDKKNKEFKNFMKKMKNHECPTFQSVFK
Briefly: Cell-based assay for in vitro measurement of SFRP-1/SARP2 antagonist activity (U2OS cells co-transfected with 16x TCF-tk-Luciferase reporter, Wnt and hSFRP-1).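 For all read-outs here: U2OS cells co-transfected with a TCF-tk luciferase reporter, a Wnt vector, hSFRP-1 or empty vector and CMV-βgal, luciferase luminescence read in cell lysates alongside βgal activity.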 Particulars: for fold induction at 15 µM / fold induction at 30 µM: U2OS; for Fold Induction with SFRP-1 / Fold Induction without SFRP-1: Conc 15 μM. (In a reporter assay the amount or activity of a reporter protein is the signal.)

[1] abbreviates: read-out: Fold Induction with SFRP-1, Conc 15 μM, with SFRP-1, fold induction over SFRP-1 control, single dose.
[2] abbreviates: read-out: Fold Induction without SFRP-1, Conc 15 μM, without SFRP-1, single dose.
The mark [3] stands for this setting: with SFRP-1, fold induction over SFRP-1 control, single dose.

For `COc1ccccc1CCNS(=O)(=O)c1cc(S(=O)(=O)c2ccccc2)ccc1OC` [Example 151, 2-methoxy-N-[2-(2-methoxyphenyl)ethyl]-5-(phenylsulfonyl)benzenesulfonamide], the fold induction at 15 µM worked out at 1.4 under setting [1] and 1.1 under setting [2].
On the same counts, the results for `COc1cccc(CCNS(=O)(=O)c2cc(S(=O)(=O)c3ccccc3)ccc2OC)c1` [Example 152, 2-methoxy-N-[2-(3-methoxyphenyl)ethyl]-5-(phenylsulfonyl)benzenesulfonamide] are 1.6 and 1.1.
On the same counts, the results for `COc1ccc(CCNS(=O)(=O)c2cc(S(=O)(=O)c3ccccc3)ccc2OC)cc1OC` [Example 153, N-[2-(3,4-dimethoxyphenyl)ethyl]-2-methoxy-5-(phenylsulfonyl)benzenesulfonamide] are 1.5 and 1.1.
For the compound `COc1ccc(S(=O)(=O)c2ccccc2)cc1S(=O)(=O)NCCc1ccc(S(N)(=O)=O)cc1` [Example 154, N-{2-[4-(aminosulfonyl)phenyl]ethyl}-2-methoxy-5-(phenylsulfonyl)benzenesulfonamide], the fold induction at 15 µM runs as follows: under setting [1], 1.4; under setting [2], 1.3.
For `COc1ccc(S(=O)(=O)c2ccccc2)cc1S(=O)(=O)NCCc1cccc(F)c1` [Example 155, N-[2-(3-fluorophenyl)ethyl]-2-methoxy-5-(phenylsulfonyl)benzenesulfonamide], in that order: 1.5 and 1.2.
For `COc1ccc(S(=O)(=O)c2ccccc2)cc1S(=O)(=O)NCCc1ccccc1F` [Example 156, N-[2-(2-fluorophenyl)ethyl]-2-methoxy-5-(phenylsulfonyl)benzenesulfonamide], in that order: 1.4 and 1.4.
Consider `CCOc1cc(CCNS(=O)(=O)c2cc(S(=O)(=O)c3ccccc3)ccc2OC)ccc1OC` [Example 157, N-[2-(3-ethoxy-4-methoxyphenyl)ethyl]-2-methoxy-5-(phenylsulfonyl)benzenesulfonamide], for which the fold induction at 15 µM came out at 1.5 under setting [1] and 1.2 under setting [2].
On to `CCOc1ccc(CCNS(=O)(=O)c2cc(S(=O)(=O)c3ccccc3)ccc2OC)cc1OC` [Example 158, N-[2-(4-ethoxy-3-methoxyphenyl)ethyl]-2-methoxy-5-(phenylsulfonyl)benzenesulfonamide], for which the fold induction at 15 µM reads like this: under setting [1], 1.4; under setting [2], 1.1.
Take `Cc1ccc(S(=O)(=O)c2ccc(F)cc2)cc1S(=O)(=O)NCCC(N)=O` [Example 159, N^3-({5-[(4-fluorophenyl)sulfonyl]-2-methylphenyl}sulfonyl)-beta-alaninamide]: the fold induction at 15 µM worked out at 1.8 under setting [1] and 0.9 under setting [2].
On the same counts, the results for `COC(=O)CCNS(=O)(=O)c1cc(S(=O)(=O)c2ccc(F)cc2)ccc1C` [Example 160, methyl N-({5-[(4-fluorophenyl)sulfonyl]-2-methylphenyl}sulfonyl)-beta-alaninate] are 2.4 and 0.9.
With `Cc1ccc(S(=O)(=O)c2ccc(F)cc2)cc1S(=O)(=O)NCCC#N` [Example 161, N-(2-cyanoethyl)-5-[(4-fluorophenyl)sulfonyl]-2-methylbenzenesulfonamide], the fold induction at 15 µM under setting [1] amounted to 2.7 and the fold induction at 15 µM under setting [2] worked out at 1.
In the case of `Cc1ccc(S(=O)(=O)c2ccc(F)cc2)cc1S(=O)(=O)NCCc1ccccn1` [Example 162, 5-[(4-fluorophenyl)sulfonyl]-2-methyl-N-(2-pyridin-2-ylethyl)benzenesulfonamide], the “Fold Induction with SFRP-1” value under setting [3] was found to be 2.5 fold. For the setting “without SFRP-1, single dose”, the “Fold Induction without SFRP-1” value came out at 1 fold. Moreover, the fold induction at 15 µM was determined as 2.7 under setting [1] and 0.8 under setting [2].
Consider `Cc1ccc(S(=O)(=O)c2ccc(F)cc2)cc1S(=O)(=O)NCCCN1CCOCC1` [Example 163, 5-[(4-fluorophenyl)sulfonyl]-2-methyl-N-(3-morpholin-4-ylpropyl)benzenesulfonamide], for which the fold induction at 15 µM is, setting by setting: under setting [1], 2; under setting [2], 0.9.
On to `Cc1ccc(S(=O)(=O)c2ccc(F)cc2)cc1S(=O)(=O)NCCC1CCCN1C` (centres unmarked) [Example 164, 5-[(4-fluorophenyl)sulfonyl]-2-methyl-N-[2-(1-methylpyrrolidin-2-yl)ethyl]benzenesulfonamide], for which the fold induction at 15 µM is, setting by setting: under setting [1], 1.9; under setting [2], 1.1.
On the same counts, the results for `Cc1ccc(S(=O)(=O)c2ccc(F)cc2)cc1S(=O)(=O)NCCc1ccncc1` [Example 165, 5-[(4-fluorophenyl)sulfonyl]-2-methyl-N-(2-pyridin-4-ylethyl)benzenesulfonamide] are 3.3 and 1.
For `Cc1ccc(S(=O)(=O)c2ccc(F)cc2)cc1S(=O)(=O)NCCN1CCCCC1` [Example 166, 5-[(4-fluorophenyl)sulfonyl]-2-methyl-N-(2-piperidin-1-ylethyl)benzenesulfonamide], in that order: 2 and 1.1.
For `Cc1ccc(S(=O)(=O)c2ccc(F)cc2)cc1S(=O)(=O)NCCc1c[nH]cn1` [Example 167, 5-[(4-fluorophenyl)sulfonyl]-N-[2-(1H-imidazol-4-yl)ethyl]-2-methylbenzenesulfonamide], in that order: 3 and 1.
On to `CC(=O)NCCNS(=O)(=O)c1cc(S(=O)(=O)c2ccc(F)cc2)ccc1C` [Example 168, N-{2-[({5-[(4-fluorophenyl)sulfonyl]-2-methylphenyl}sulfonyl)amino]ethyl}acetamide], for which the fold induction at 15 µM by setting is: under setting [1], 1.7; under setting [2], 0.9.
With `Cc1ccc(S(=O)(=O)c2ccc(F)cc2)cc1S(=O)(=O)NCCCN1CCCC1=O` [Example 170, 5-[(4-fluorophenyl)sulfonyl]-2-methyl-N-[3-(2-oxopyrrolidin-1-yl)propyl]benzenesulfonamide], the fold induction at 15 µM stood at 2.3 under setting [1] and 0.9 under setting [2].
In the case of `CCN(CC)CCNS(=O)(=O)c1cc(S(=O)(=O)c2ccc(F)cc2)ccc1C` [Example 171, N-[2-(diethylamino)ethyl]-5-[(4-fluorophenyl)sulfonyl]-2-methylbenzenesulfonamide], the fold induction at 15 µM is 2.2 under setting [1] and 1.2 under setting [2].
Take `Cc1ccc(S(=O)(=O)c2ccc(F)cc2)cc1S(=O)(=O)NCCN(C)C` [Example 172, N-[2-(dimethylamino)ethyl]-5-[(4-fluorophenyl)sulfonyl]-2-methylbenzenesulfonamide]: the fold induction at 15 µM worked out at 1.9 under setting [1] and 1.1 under setting [2].
As for `COCCCNS(=O)(=O)c1cc(S(=O)(=O)c2ccc(F)cc2)ccc1C` [Example 173, 5-[(4-fluorophenyl)sulfonyl]-N-(3-methoxypropyl)-2-methylbenzenesulfonamide], the “Fold Induction with SFRP-1” value under setting [3] is recorded as 2 fold. For the same compound, the “Fold Induction without SFRP-1” value (without SFRP-1, single dose) is given as 1 fold. Further, the fold induction at 15 µM by setting is: under setting [1], 2.5; under setting [2], 0.8.
In the case of `Cc1ccc(S(=O)(=O)c2ccc(F)cc2)cc1S(=O)(=O)NCCCN(C)C` [Example 174, N-[3-(dimethylamino)propyl]-5-[(4-fluorophenyl)sulfonyl]-2-methylbenzenesulfonamide], the fold induction at 15 µM under setting [1] stood at 2.8 and the fold induction at 15 µM under setting [2] came to 1.2.
On the same counts, the results for `COCCNS(=O)(=O)c1cc(S(=O)(=O)c2ccc(F)cc2)ccc1C` [Example 175, 5-[(4-fluorophenyl)sulfonyl]-N-(2-methoxyethyl)-2-methylbenzenesulfonamide] are 2.5 and 0.9.
For `CCN(CC)CCCNS(=O)(=O)c1cc(S(=O)(=O)c2ccc(F)cc2)ccc1C` [Example 176, N-[3-(diethylamino)propyl]-5-[(4-fluorophenyl)sulfonyl]-2-methylbenzenesulfonamide], in that order: 2.6 and 1.3.
For `Cc1ccc(S(=O)(=O)c2ccc(F)cc2)cc1S(=O)(=O)NCCCN1CCCC1` [Example 178, 5-[(4-fluorophenyl)sulfonyl]-2-methyl-N-(3-pyrrolidin-1-ylpropyl)benzenesulfonamide], the fold induction at 15 µM by setting is: under setting [1], 2.8; under setting [2], 1.5.
On the same counts, the results for `Cc1ccc(S(=O)(=O)c2ccc(F)cc2)cc1S(=O)(=O)NCCCN1CCN(C)CC1` [Example 179, 5-[(4-fluorophenyl)sulfonyl]-2-methyl-N-[3-(4-methylpiperazin-1-yl)propyl]benzenesulfonamide] are 2 and 1.1.
For `Cc1ccc(S(=O)(=O)c2ccc(F)cc2)cc1S(=O)(=O)NCCC(=O)O` [Example 180, N-({5-[(4-fluorophenyl)sulfonyl]-2-methylphenyl}sulfonyl)-beta-alanine], in that order: 1.2 and 1.
As for `NC(=O)CCNS(=O)(=O)c1cccc(S(=O)(=O)c2ccccc2)c1` [Example 181, N^3-{[3-(phenylsulfonyl)phenyl]sulfonyl}-beta-alaninamide], the fold induction at 30 µM (read-out: Fold Induction with SFRP-1, Conc 30 μM, with SFRP-1, fold induction over SFRP-1 control, single dose) stood at 0.6 and the fold induction at 30 µM (read-out: Fold Induction without SFRP-1, Conc 30 μM, without SFRP-1, single dose) is 1.
